{
  "source": "patent US9895381B2",
  "about": "“Vitamin D receptor agonists to treat diseases involving CXCL12 activity” (Salk Institute for Biological Studies, priority 2013, dated 2018)",
  "key": {"primary human CAPSCs": {"test_system": "primary human CAPSCs", "assay": "Lipid droplet accumulation assay (BODIPY 493/503)", "format": "cell-based", "conditions": "100 nM Cal, 48 h; samples responding / samples tested", "description": "Primary human CAPSCs were seeded onto glass coverslips. After overnight attachment, cells were treated with vehicle (DMSO) or 100 nM calcipotriol for 48 h. Media was aspirated, cells were washed twice with PBS (Gibco) and fixed in 10% buffered formalin at room temperature for 15 minutes. Fixative was removed and cells were washed three times with PBS. Cells were then stained with 1 μg/ml 4,4-Difluoro-1,3,5,7,8-Pentamethyl-4-Bora-3a,4a-Diaza-s-Indacene (BODIPY 493/503, Molecular Probes) for 1 h at room temperature, protected from light. Dye was removed and cells were washed three times with PBS, then mounted using Vectastain mounting medium (Vector Labs). Fluorescence was visualized through the GFP filter on a Leica DM5000B fluorescent microscope and quantification performed using ImageJ."}, "primary mouse PSCs": {"test_system": "primary mouse PSCs", "assay": "RNA-Seq transcriptome of PSCs with or without VDR ligand", "format": "cell-based", "description": "Pancreatic stellate cells (PSCs) were isolated from pancreata of wild-type C57BL6/J mice at 8 weeks of age by a modification of the method described by Apte et al. (Apte et al., 1998). Briefly, pancreatic tissue was minced with scissors and digested with 0.02% Pronase (Roche, Indianapolis, Ind.), 0.05% Collagenase P (Roche), and 0.1% DNase (Roche) in Gey's balanced salt solution (GBSS; Sigma Aldrich, St. Louis, Mo.) at 37° C. for […] Digested tissue was then filtered through a 100 μm nylon mesh. Cells were washed once with GBSS, pelleted, and resuspended in 9.5 ml GBSS containing 0.3% bovine serum albumin (BSA) and 8 ml 28.7% Nycodenz solution (Sigma Aldrich; approximate density of the solution is 1.070). The cell suspension was layered beneath GBSS containing 0.3% BSA, and centrifuged at 1400×g for 20 min at 4° C. The cells of interest were harvested from the interface of the Nycodenz solution at the bottom and the aqueous solution at the top. Isolated PSCs were washed with GBSS and resuspended in DMEM (Invitrogen) containing 10% characterized FBS (HyClone) and antibiotics (penicillin 100 U/ml and streptomycin 100 μg/ml, Invitrogen). Cells were maintained at 37° C. in a humidified atmosphere of 7% CO2. After reaching 80% confluence, cells were briefly trypsinized (0.25% Trypsin-EDTA, Invitrogen) and subcultured. Total RNA from human and mouse PSCs was isolated using Trizol (Invitrogen) and the RNeasy mini kit with on-column DNase digestion (Qiagen) according to the manufacturers' instructions. Biological quadruplicates were used for human samples, and biological triplicates used for mouse samples. For transcriptome studies with VDR activation, PSCs were treated with vehicle (DMSO) or 100 nM calcipotriol (Tocris) and harvested at the indicated time points. Sequencing libraries were prepared from 100-500 ng total RNA using the TruSeq RNA Sample Preparation Kit v2 (Illumina) according to the manufacturer's protocol. The Gene Expression Omnibus accession number for the RNA-Seq data is GSE43770. Briefly, mRNA was purified, fragmented, and used for first-, then second-strand cDNA synthesis followed by adenylation of 3′ ends. Samples were ligated to unique adapters and subject to PCR amplification. Libraries were then validated using the 2100 BioAnalyzer (Agilent), normalized, and pooled for sequencing. Human normal and cancer-associated PSCs were sequenced on the Illumina GAII platform with a 41 bp read length, while mouse PSCs and human MiaPaCa-2 cells were sequenced on the Illumina HiSeq 2000 using bar-coded multiplexing and a 51 bp read length. Read alignment and junction mapping was accomplished using TopHat2 v2.0.4 using a 25 bp 5′ segment seed for initial mapping followed by differential gene expression analysis using Cuffdiff v2.0.2 to map reads to the reference genome annotation, NCBI mouse build 37.2 and human build 37.2 (Trapnell et al., 2012). Median sequencing read yield per replicate sample was 49.2M for MiaPaCa-2 cells, 25.4M for mouse PSCs and 53.8M for human PSCs. Data were expressed as fragments per kilobase of exon per million fragments mapped (FPKM). Volcano plots were generated from Cuffdiff output using CummeRbund v2.0.0 (Trapnell et al., 2012)."}, "hPSC cell line": {"test_system": "hPSC cell line", "assay": "Chromatin immunoprecipitation for VDR and SMAD3", "format": "cell-based, human", "conditions": "100 nM Cal 16 h pretreatment, 1 ng/ml TGFβ 4 h", "description": "The hPSC cell line was utilized for chromatin immunoprecipitation, which was described previously (Barish et al., 2010). Briefly, cells were fixed in 1% formaldehyde, and nuclei were isolated and lysed in buffer containing 1% SDS, 10 mM EDTA, 50 mM Tris-HCl pH 8.0, and protease inhibitors, and sheared with a Diagenode Bioruptor to chromatin fragment sizes of 200-1000 base pairs. Chromatin was immunoprecipitated with antibodies to VDR (C-20, Santa Cruz Biotechnology), SMAD3 (Abcam), or rabbit IgG (Santa Cruz Biotechnology)."}, "MiaPaCa-2 cells": {"test_system": "MiaPaCa-2 cells", "assay": "CAPSC conditioned media experiments", "format": "cell-based, human", "conditions": "CM from Cal-treated CAPSCs (100 nM, 48 h), 48 h on MiaPaCa-2", "description": "Primary […] were grown to 100% confluency. Fresh media was added to the cultures, and at this time, […] were treated with 100 nM calcipotriol. After 48 h, conditioned media was harvested, sterile-filtered through 0.45 μm pores, and added to pancreatic cancer cells (PCCs) at 50-60% confluency. PCCs were treated directly with 100 nM calcipotriol at the onset of conditioned media incubation. After 48 h, PCCs were harvested and RNA and protein isolated for analysis."}, "[1]": {"conditions": "cited from earlier work"}},
  "data": [
    {"molecule": "C=C1/C(=C\\C=C2/CCC[C@]3(C)[C@@H]([C@H](C)/C=C/[C@@H](O)C4CC4)CC[C@@H]23)C[C@@H](O)C[C@@H]1O", "note": "[Cal, 1α,24-(OH)2-24-cyclopropyl-D3]", "values": [
      {"measurement": "lipid droplet formation, primary patient samples", "setting": "primary human CAPSCs", "value": "19/27"},
      {"measurement": "effect on activation and cancer signatures in PSCs", "setting": "primary mouse PSCs", "value": "inhibition of the activation and cancer signatures"},
      {"measurement": "genes with significantly decreased expression", "setting": "primary mouse PSCs; activated PSCs", "value": 1616, "unit": "genes"},
      {"measurement": "genes with significantly increased expression", "setting": "primary mouse PSCs; activated PSCs", "value": 664, "unit": "genes"},
      {"measurement": "genes with significantly decreased expression", "setting": "primary mouse PSCs; pre-activated PSCs", "value": 431, "unit": "genes"},
      {"measurement": "genes with significantly increased expression", "setting": "primary mouse PSCs; pre-activated PSCs", "value": 307, "unit": "genes"},
      {"measurement": "SMAD3 binding in promoter regions of fibrogenic genes (HAS2, COL1A1)", "setting": "hPSC cell line", "value": "decreasing SMAD3 binding"},
      {"measurement": "VDR binding in promoter regions of fibrogenic genes (HAS2, COL1A1)", "setting": "hPSC cell line", "value": "increased VDR binding"},
      {"measurement": "gene expression changes induced by CAPSC conditioned media", "setting": "MiaPaCa-2 cells", "value": "largely abrogated"},
      {"measurement": "solubility in DMSO", "setting": "[1]; DMSO", "value": 100, "unit": "mM"},
      {"measurement": "solubility in ethanol", "setting": "[1]; ethanol", "value": 100, "unit": "mM"}
    ]}
  ]
}
